Data on 22 compounds can be found in patent US8431580B2, “4-aminopyrimidine derivatives as histamine H4 receptor antagonists” (Palau Pharma, S.A., priority 2007, dated 2013).

In one assay the test system is human eosinophils. Kind of assay: Histamine-induced shape change assay (Gated Autofluorescence Forward Scatter assay, GAFS) in human eosinophils. Type of assay: cell-based. As to conditions: Eosinophil, stimulated with 300 nM histamine. The method, then:
Histamine-induced Shape Change Assay (Gated Autofluorescence Forward Scatter Assay, GAFS) in Human Eosinophils
In this assay the shape change induced by histamine in human eosinophils is determined by flow cytometry, detected as an increase in the size of the cells (forward scatter, FSC).
Polymorphonuclear leucocytes (PMNL, fraction containing neutrophils and eosinophils) were prepared from whole blood of human healthy volunteers. Briefly, erythrocytes were separated by sedimentation in 1.2% Dextran (SIGMA), and the leucocyte-rich fraction (PMNL) was isolated from the top layer by centrifugation at 450 g for 20 min in the presence of Ficoll-Paque® (Biochrom). PMNLs were resuspended in PBS buffer at a concentration of 1.1×10^6 cells/ml/tube and were pretreated with different concentrations of test compounds (dissolved in PBS) for 30 min at 37° C. and then stimulated with 300 nM histamine (Fluka) for 5 min. Finally, paraformaldehyde (1% final concentration in PBS) was added to terminate the reaction and maintain cell shape. Cell shape change was analyzed by flow cytometry (FACS Calibur, BD Biosystems). Eosinophils in PMNL were gated based on their higher autofluorescence relative to that of neutrophils (fluorescence channel FL2). Cell shape change was monitored in forward scatter signals (FSC). Results are expressed as percentage inhibition of shape change induced by histamine for each concentration of test compound.

Assay [1] addresses T1, human histamine H4 receptor (Homo sapiens, UniProt Q9H3N8).
T1 construct: purchased Euroscreen/Perkin-Elmer
Kind of assay: Competitive binding assay of [3H]-histamine to the human histamine H4 receptor. As to conditions: 10 nM [3H]-histamine, CHO membrane extract; for inhibition at 1 µM: at a concentration of 1 μM. The method, then:
Competitive Binding Assay of [^3H]-histamine to the Human Histamine H4 Receptor
To perform the binding assay, membrane extracts prepared from a stable CHO recombinant cell line expressing the human histamine H4 receptor (Euroscreen/Perkin-Elmer) were used.
The compounds to be tested were incubated at the desired concentration in duplicate with 10 nM [^3H]-histamine and 15 μg membrane extract in a total volume of 250 μL of 50 mM Tris-HCl, pH 7.4, 1.25 mM EDTA for 60 minutes at 25° C. Non-specific binding was defined in the presence of 100 μM of unlabelled histamine. The reaction was stopped by filtration using a vacuum collector (Multiscreen Millipore) in 96-well plates (MultiScreen HTS Millipore) that had been previously soaked in 0.5% polyethylenimine for 2 hours at 0° C. The plates were subsequently washed with 50 mM Tris (pH 7.4), 1.25 mM EDTA at 0° C., and the filters were dried for 1 hour at 50-60° C., before adding the scintillation liquid in order to determine bound radioactivity by means of a betaplate scintillation counter.

T1 sequence (Q9H3N8 whole entry): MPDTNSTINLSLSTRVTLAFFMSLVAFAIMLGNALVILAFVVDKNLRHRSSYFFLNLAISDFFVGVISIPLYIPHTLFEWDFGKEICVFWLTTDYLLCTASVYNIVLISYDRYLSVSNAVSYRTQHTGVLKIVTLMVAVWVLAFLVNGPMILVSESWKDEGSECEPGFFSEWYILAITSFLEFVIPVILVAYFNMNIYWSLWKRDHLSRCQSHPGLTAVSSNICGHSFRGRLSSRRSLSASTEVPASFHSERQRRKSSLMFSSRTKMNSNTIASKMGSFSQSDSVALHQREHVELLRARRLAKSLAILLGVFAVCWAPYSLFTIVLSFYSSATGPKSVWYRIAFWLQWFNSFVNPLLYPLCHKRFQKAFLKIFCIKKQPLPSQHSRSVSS

With `CN[C@@H]1CCN(c2cc(N)nc(C3CCCC3)n2)C1` [Example 20, 2-Cyclopentyl-6-((3R)-3-(methylamino)pyrrolidin-1-yl)pyrimidin-4-amine], the inhibition (usually the percentage by which the read-out fell short of the control) at 1 µM in the assay on human eosinophils was over 50%. The inhibition at 10 µM in assay [1] was over 50%. As to `CN[C@@H]1CCN(c2cc(N)nc(C3CCC3)n2)C1` [Example 18, 2-Cyclobutyl-6-((3R)-3-(methylamino)pyrrolidin-1-yl)pyrimidin-4-amine], the inhibition at 1 µM in the assay with human eosinophils is over 50%. The inhibition at 10 µM in assay [1] is over 50%.

`CNC1(C)CN(c2cc(N)nc(CC(C)C)n2)C1` [Example 15, 2-Isobutyl-6-(3-methyl-3-(methylamino)azetidin-1-yl)pyrimidin-4-amine] displayed an inhibition at 1 µM with human eosinophils of over 50%. Besides, in assay [1], the inhibition at 10 µM is over 50%. For the compound `CN[C@@H]1CCN(c2cc(N)nc(CC(C)(C)C)n2)C1` [Example 22, 2-(2,2-Dimethylpropyl)-6-((3R)-3-(methylamino)pyrrolidin-1-yl)pyrimidin-4-amine], in the assay with human eosinophils, the inhibition at 1 µM is over 50%. Besides, in assay [1], the inhibition at 10 µM is over 50%. For the compound `CNC1CN(c2cc(N)nc(C(C)(C)C)n2)C1` [Example 6, 2-tert-Butyl-6-(3-(methylamino)azetidin-1-yl)pyrimidin-4-amine], the inhibition at 10 µM in assay [1] was over 50%. Turning to `CN[C@@H]1CCN(c2cc(N)nc(C(C)C)n2)C1` [Example 12, 2-Isopropyl-6-((3R)-3-(methylamino)pyrrolidin-1-yl)pyrimidin-4-amine], the inhibition at 1 µM (in the assay on human eosinophils; in assay [1]) was over 50% in each case. `CN[C@@H]1CCN(c2cc(N)nc(C3CC3)n2)C1` [Example 10, 2-Cyclopropyl-6-((3R)-3-(methylamino)pyrrolidin-1-yl)pyrimidin-4-amine]: in assay [1], the inhibition at 1 µM was over 50%. With `CN[C@@H]1CCN(c2cc(N)nc(CC(C)C)n2)C1` [Example 1, 2-Isobutyl-6-((3R)-3-(methylamino)pyrrolidin-1-yl)pyrimidin-4-amine], in the assay on human eosinophils, the inhibition at 1 µM is over 50%. In assay [1], this compound displayed an inhibition at 10 µM of over 50%.

`CN[C@@H]1CCN(c2cc(N)nc(CCC3CCCC3)n2)C1` [Example 23, 2-(2-Cyclopentylethyl)-6-((3R)-3-(methylamino)pyrrolidin-1-yl)pyrimidin-4-amine] returned an inhibition at 10 µM in assay [1] of over 50%. For the compound `CNC1CN(c2cc(N)nc(C3CCC3)n2)C1` [Example 17, 2-Cyclobutyl-6-(3-(methylamino)azetidin-1-yl)pyrimidin-4-amine], the inhibition at 1 µM with human eosinophils is over 50%. The compound also yielded an inhibition at 10 µM in assay [1] of over 50%. With `CNC1CN(c2cc(N)nc(C3CCCC3)n2)C1` [Example 19, 2-Cyclopentyl-6-(3-(methylamino)azetidin-1-yl)pyrimidin-4-amine], the inhibition at 1 µM in the assay on human eosinophils is over 50%. This compound came in with an inhibition at 10 µM in assay [1] of over 50%. On to `CNC1CN(c2cc(N)nc(CC(C)(C)C)n2)C1` [Example 21, 2-(2,2-Dimethylpropyl)-6-(3-(methylamino)azetidin-1-yl)pyrimidin-4-amine], for which the inhibition at 1 µM with human eosinophils is over 50%. Besides, the inhibition at 10 µM in assay [1] was over 50%. On to `CN[C@@H]1CCN(c2cc(N)nc(C(C)(C)C)n2)C1` [Example 11, 2-tert-Butyl-6-((3R)-3-(methylamino)pyrrolidin-1-yl)pyrimidin-4-amine], for which the inhibition at 1 µM (with human eosinophils; in assay [1]) was over 50% in each case. In assay [1], `CN[C@@H]1CCN(c2cc(N)nc(COc3ccccc3)n2)C1` [Example 13, 6-((3R)-3-(methylamino)pyrrolidin-1-yl)-2-(phenoxymethyl)pyrimidin-4-amine] gave an inhibition at 10 µM of over 50%. Turning to `CNC1CN(c2cc(N)nc(COc3ccccc3)n2)C1` [Example 9, 6-(3-(methylamino)azetidin-1-yl)-2-(phenoxymethyl)pyrimidin-4-amine], the inhibition at 10 µM in assay [1] is over 50%. Take `CNC1CN(c2cc(N)nc(Cc3ccc(F)cc3)n2)C1` [Example 3, 2-(4-Fluorobenzyl)-6-(3-(methylamino)azetidin-1-yl)pyrimidin-4-amine]: in the assay on human eosinophils, the inhibition at 1 µM is over 50%. For the same compound, the inhibition at 10 µM in assay [1] is over 50%. In the case of `CC(C)Cc1nc(N)cc(N2CC(N)C2)n1` [Example 14, 6-(3-Aminoazetidin-1-yl)-2-isobutylpyrimidin-4-amine], the inhibition at 10 µM in assay [1] is over 50%. Still for that read-out and setting: with `CC(C)Cc1nc(N)cc(N2CC[C@@H](N)C2)n1` [Example 16, 6-((3R)-3-aminopyrrolidin-1-yl)-2-isobutylpyrimidin-4-amine] the figure was over 50%. With `CNC1CN(c2cc(N)nc(CC(C)C)n2)C1` [Example 4, 2-Isobutyl-6-(3-(methylamino)azetidin-1-yl)pyrimidin-4-amine], the inhibition at 1 µM in the assay with human eosinophils is over 50%. In assay [1], this compound had an inhibition at 10 µM of over 50%. With `CN[C@@H]1CCN(c2cc(N)nc(CC3CCCCC3)n2)C1` [Example 2, 2-Cyclohexylmethyl-6-((3R)-3-(methylamino)pyrrolidin-1-yl)pyrimidin-4-amine], in the assay on human eosinophils, the inhibition at 1 µM is over 50%. This compound also registered an inhibition at 10 µM in assay [1] of over 50%. `CNC1CN(c2cc(N)nc(C(C)C)n2)C1` [Example 7, 2-Isopropyl-6-(3-(methylamino)azetidin-1-yl)pyrimidin-4-amine] had an inhibition at 10 µM in assay [1] of over 50%. The same measure, in the same setting: in the case of `CNC1CN(c2cc(N)nc(C3CC3)n2)C1` [Example 5, 2-Cyclopropyl-6-(3-(methylamino)azetidin-1-yl)pyrimidin-4-amine] it was over 50%.
